Four molecules from article PMC4840416, “Constructing and Validating High-Performance MIEC-SVM Models in Virtual Screening for Kinases: A Better Way for Actives Discovery” (Scientific Reports, 2016) can be followed below.

The test has as its target T1, recombinant human ALK protein (Homo sapiens, UniProt Q9UM73).
T1 construct: purchased Life Technologies Inc. PV3867
In words: LanthaScreen TR-FRET in vitro inhibitory activity assay of ALK. As to conditions: for IC50: TR-FRET, 5 μM ATP, 1 hour at room temperature; for inhibition at 2 µg/mL / Averaged Enzymatic Inhibition @ 2ug/ml (%): compound at 2ug/ml; for inhibition at 2 µg/mL: read-out: Averaged Enzymatic Inhibition @ 2ug/ml (%). The class given is biochemical. On the procedure:
All reagents and anhydrous solvents were obtained from commercial sources and used as received. The positive control inhibitors of ALK, crizotinib and ceritinib, were purchased from Bangshunda Technology and Selleck Chemicals, respectively. The compounds were dissolved in 100% dimethyl sulfoxide (DMSO) as a 10 mM stock solution. The final DMSO concentration in each reaction was less than 1%. Purified recombinant human ALK protein (Catalog number: PV3867) as well as reagents for TR-FRET assay, including Lantha Screen™ Tb-PY20 (Catalog number: PV3552), Fluorescein-Poly GT (Catalog number: PV3610), ATP (Catalog number: PV3227), Kinase Quench Buffer (Catalog number: P2832), Kinase Buffer (Catalog number: PV3189), and Antibody Dilution Buffer (Catalog number: PV3574), were all obtained from Life Technologies Inc.
Lantha Screen™ kinase assay based on TR-FRET technology was used to measure the inhibitory activity of the screened compounds. All the assays were carried out in 384-well plate format. The 4 × test compounds were firstly prepared before the enzyme reaction starts. The 4 × recombinant human ALK protein and 2 × Substrate/ATP mixture were separately prepared in 50 mM HEPES (pH = 7.5), 0.01% BRIJ-35, 10 mM MgCl2, 4 mM MnCl2, 1 mM EGTA, and 2 mM DTT. The final 10 μL kinase reaction consists of 5 μL 1 × Substrate/ATP mixture (0.2 μM substrate and 5 μM ATP), 2.5 μL ALK (5 ng/ml ALK protein), and 2.5 μL 1 × test compounds with desired concentration. The assay plate was shook on a plate shaker for 30 seconds to mix the reactions thoroughly. After 1 hour kinase reaction incubation at room temperature (20 ~ 25 °C), 10 μL of pre-prepared 20 mM EDTA and 4 nM Tb-labeled antibody solution was then added to terminate the kinase reactions and to initiate antibody binding, and the assay plate was incubated for another 1 hour at room temperature. Then, the assay plate was placed into a fluorescence plate reader (BioTek Synergy™ 4) to measure both fluoresce in and terbium emission signals (excitation: 340 nm; emission: 520 and 495 nm, respectively) with 100 μs delay time and 200 μs integration time. To determine the IC50 values, the resulted inhibitory activity calculated from TR-FRET emission ratio (i.e. fluoresce in emission intensity/terbium emission intensity) was plotted against the concentration of inhibitor, and the data was fitted to a dose-response curve with a variable slop.
(Time-resolved FRET reads energy transfer from a long-lived donor to a nearby acceptor.)

T1 sequence (Q9UM73 1058-1620 limits assumed): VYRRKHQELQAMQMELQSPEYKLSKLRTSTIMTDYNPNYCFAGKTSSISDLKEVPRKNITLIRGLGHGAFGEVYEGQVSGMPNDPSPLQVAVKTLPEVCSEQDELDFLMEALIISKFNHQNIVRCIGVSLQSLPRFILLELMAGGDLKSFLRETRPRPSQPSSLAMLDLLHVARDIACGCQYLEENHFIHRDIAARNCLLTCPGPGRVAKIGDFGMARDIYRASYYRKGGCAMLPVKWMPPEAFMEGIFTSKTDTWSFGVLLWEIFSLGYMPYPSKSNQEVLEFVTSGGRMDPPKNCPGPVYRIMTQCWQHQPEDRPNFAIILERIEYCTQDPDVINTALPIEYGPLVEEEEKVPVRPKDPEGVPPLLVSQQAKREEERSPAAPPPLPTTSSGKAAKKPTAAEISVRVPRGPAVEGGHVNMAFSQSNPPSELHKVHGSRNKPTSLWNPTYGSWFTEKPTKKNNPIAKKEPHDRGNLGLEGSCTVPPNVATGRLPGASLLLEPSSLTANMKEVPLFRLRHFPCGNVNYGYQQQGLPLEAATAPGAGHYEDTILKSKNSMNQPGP

With `CN1C(=O)c2cccc3c(S(=O)(=O)Nc4nc[nH]n4)ccc1c23` [Compound M6], the IC50 (as a rule, the midpoint of a concentration-inhibition curve) was 4.45 µM and the inhibition at 2 µg/mL came out at 53.3%.
Taken in the same sequence, the figures for `CCN1C(=O)c2cccc3c(S(=O)(=O)Nc4nc5ccccc5s4)ccc1c23` [Compound M7] were 6.05 µM and 50.8%.
Consider `Cc1cccc2cc3c(nc12)N(C(=O)c1ccc(S(=O)(=O)N2CCCCC2)cc1)CC3` [Compound M8], for which the IC50 was found to be 11.5 µM and the “Averaged Enzymatic Inhibition @ 2ug/ml (%)” value came out at 48.88%.
The like results for `Cc1c(C=C2C(=O)N(C)C(=S)N(C)C2=O)c2ccccc2n1Cc1ccccc1` [Compound M9] were, in that order, 18.2 µM and 37.24%.
